The source of these data is US20260062412A1, “NITROGEN-CONTAINING HETEROCYCLIC COMPOUND HAVING MYT1 INHIBITORY ACTIVITY” (CHUGAI SEIYAKU KABUSHIKI KAISHA, priority 2023, published 2026).

The target in assay [1] is T1, MYT1 protein (Homo sapiens (Human), UniProt Q99640). Nature of the assay: Test for binding to ATP binding site of MYT1 (Kinase Tracer 178 / Eu-Anti-GST antibody TR-FRET). Particulars: ATP binding site of MYT1, 30 minutes at room temperature. (In general: Time-resolved FRET reads energy transfer from a long-lived donor to a nearby acceptor.)
Assay [2] deals with T1, MYT1 protein. Nature of the assay: MYT1 kinase activity inhibition test (ELISA, phosphorylation of Y15 of CDK1). The class given is biochemical. The note with it: phosphorylation level of Y15 of CDK1 protein caused by MYT1 protein, 60 minutes. The method in brief:
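Recombinant human MYT1 (5 nM working solution) was incubated 60 min at room temperature with compound and ATP (83.3 μM working solution) on a CDK1-coated ELISA plate. CDK1 Y15 phosphorylation was detected with HRP anti-phosphotyrosine, read as A450 minus A590. Inhibition was normalised to no-compound (100%) and no-enzyme (0%) signals to derive IC50.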
(In general: An ELISA detects its analyte on a solid surface through an enzyme-linked reagent.)

Assay [3] relates to LU65. The assay is described as follows: Cytotoxicity test with pemetrexed upon addition of each example compound (CellTiter-Glo). In kind it is cell-based, human. Particulars: combination with pemetrexed, LU65 cells, 7 days; maximum value, at the MYT1 inhibitor and pemetrexed concentrations. The method, boiled down: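 LU65 lung cancer cells (RB1 S82* truncation, reduced RB1 function) in RPMI-1640/10% FBS were treated with pemetrexed plus each compound over concentration series, 7 days at 37 °C. ATP measured by CellTiter-Glo luminescence; survival relative to DMSO after blank subtraction, cytotoxicity = 100% minus survival.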
A general note: In ATP-based viability assays light output follows the ATP content of the culture.

T1 sequence (Q99640 whole entry): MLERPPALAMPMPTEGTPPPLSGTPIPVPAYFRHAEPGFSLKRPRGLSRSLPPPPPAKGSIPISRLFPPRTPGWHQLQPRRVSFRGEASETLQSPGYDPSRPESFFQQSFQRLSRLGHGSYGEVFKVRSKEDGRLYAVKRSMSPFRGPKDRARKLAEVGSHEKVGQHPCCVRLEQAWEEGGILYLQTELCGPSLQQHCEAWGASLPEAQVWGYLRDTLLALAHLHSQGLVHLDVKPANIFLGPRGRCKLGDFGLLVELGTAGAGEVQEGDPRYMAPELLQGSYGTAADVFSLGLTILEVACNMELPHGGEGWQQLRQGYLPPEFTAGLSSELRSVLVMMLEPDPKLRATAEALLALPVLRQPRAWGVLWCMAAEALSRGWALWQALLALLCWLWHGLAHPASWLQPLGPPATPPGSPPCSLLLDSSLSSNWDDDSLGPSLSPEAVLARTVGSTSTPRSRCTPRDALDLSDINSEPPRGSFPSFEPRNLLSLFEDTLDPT

`Nc1c(-c2cccc3[nH]ncc23)c2cc(C3CC3)c3cnccc3c2[nH]c1=O` [Compound P1, 3-Amino-6-cyclopropyl-4-(1H-indazol-4-yl)-1H-1,8-phenanthrolin-2-one]: in assay [1], the IC50 (usually the concentration that gives 50% inhibition) is 1.8 nM. This compound also registered a half-maximal inhibitory concentration (IC50) in assay [2] of 0.22 nM. In assay [3], the “Bliss Score (Max)” value is listed as 49% and the “HSA Score (MAX)” value is 55%.

Consider `Nc1c(-c2ccc(F)c3[nH]ncc23)c2cc(C3CC3)c3cnccc3c2[nH]c1=O.O=C(O)C(F)(F)F` [Compound P4, 3-Amino-6-cyclopropyl-4-(7-fluoro-1H-indazol-4-yl)-1H-1,8-phenanthrolin-2-one 2,2,2-trifluoroacetate], for which the IC50 in assay [1] amounted to 6.1 nM; in assay [2] it was 5.9 nM. Moreover, in assay [3], the “Bliss Score (Max)” value is listed as 56%. The “HSA Score (MAX)” value in assay [3] is on record as 67%.

Consider `Nc1c(-c2cccc3[nH]ncc23)c2cc(C3CC3)c3ccncc3c2[nH]c1=O` [Compound Q1, 3-Amino-6-cyclopropyl-4-(1H-indazol-4-yl)-1H-1,9-phenanthrolin-2-one], for which the half-inhibitory concentration (IC50) in assay [1] came to 9.3 nM. This compound returned an IC50 in assay [2] of 0.83 nM. For the same compound, in assay [3], the “Bliss Score (Max)” value was 52% and the “HSA Score (MAX)” value came out at 58%.
